Patent US6172262A, “Amphiphilic agents for membrane protein solubilization” (priority 1999, dated 2001)
Values after ≈ are worked out from the molar mass of the structure shown. Values joined by “and” are separate entries in the source; they are usually repeats but may differ in a detail not shown here. Equal entries are not always repeated. “Also recorded” adds a separate entry of the source.

What was measured:
[1] = CMC by uptake of fluorescent dye 1,6-diphenylhexatriene, fluorescence spectroscopy; assay type: physicochemical; settings: for CMC: Table 2, dye uptake versus concentration monitored by fluorescence spectroscopy; for CMC (Critical Micelle Concentration): uptake of 1,6-diphenylhexatriene, 25 mM sodium phosphate pH 6.9, Table 1 and text; for CMC of N-oxide relative to corresponding hydrochloride salt: 4.65 vs 4.78, 4.66 vs 4.79
Description: The CMCs of detergents 4.65-4.72 were determined by monitoring the uptake of a fluorescent dye (1,6-diphenylhexatriene) with increasing detergent concentration (Table 1, CMC's determined by dye uptake versus concentration monitored by fluorescence spectroscopy). The CMCs of N-oxide isomers 4.65, 4.67, and 4.68 are very similar: 3 mM, 3 mM, and […], respectively. […] The CMCs for the N-oxides 4.65 and 4.66 are twice the CMCs of the corresponding hydrochloride salts (4.78 and 4.79). The hydrochloride salts were formed from the amine precursors to the N-oxides. Most cationic detergents have CMCs that are much higher than non-ionic or zwitterionic analogs. For example, dodecylammonium bromide has a CMC of 15 mM which is >7 times larger than the CMC of the N-oxide analog (LDAO, CMC=2 mM).
The CMCs of 4.100 and 4.104 were determined by the uptake of the fluorescent dye 1,6-diphenylhexatriene. The CMCs are 0.125 mM and 0.700 mM respectively. These values are substantially lower than the CMC of 4.65, which was determined to be 3 mM.
The CMC of a detergent can be determined experimentally by measuring the solubilization of a water-insoluble dye or fluorophore while varying the concentration of detergent. CMC may also be determined by measuring the diminution of the surface tension of an aqueous solution as a function of detergent concentration. (CMC's determined by either method correlate with each other.) The CMC is determined by extrapolating the plot of solubilization vs. concentration (or surface tension vs. concentration) in the two linear regions above and below the CMC. Where the two lines intersect is the CMC. In this Example, CMC's were determined by the method of Nugebauer, J. M. (1990), Methods in Enzymology, 182:239-253:
Tripod solutions in aqueous solutions containing 25 mM sodium phosphate pH 6.9 were prepared and transferred to screw-capped vials, and […] of a 1,6-diphenylhexatriene solution (DPH, 3.125 mM DPH in THF) was added. The solutions were vortexed at room temperature for 30 seconds. The solutions were placed into a 3 mm×3mm quartz cell and the fluorescence spectrum was obtained (excitation 358 nm, emission 430 nm, excitation slit width=1 mm, emission slit width=20 nm, PMT voltage=700). The fluorescence intensity of each sample was plotted against amphiphile concentration. […] The data points immediately surrounding the CMC were not considered due to non-linear behavior. See Tables 1 and 2, above, for the results.

[2] = Aqueous solubility; assay type: physicochemical; settings: for solubility on adding small amounts of ethanol or ethyl acetate: aqueous suspensions plus ethanol or ethyl acetate
[3] = target: T1, Bacteriorhodopsin (BR) (Halobacterium salinarum, UniProt P02945); assay: Solubilization of bacteriorhodopsin (BR) from purple membrane (PM)
T1 construct: We used BR solubilization from the PM to evaluate tripod detergents; endogenous in cells
T1 sequence (P02945 14-261 limits assumed): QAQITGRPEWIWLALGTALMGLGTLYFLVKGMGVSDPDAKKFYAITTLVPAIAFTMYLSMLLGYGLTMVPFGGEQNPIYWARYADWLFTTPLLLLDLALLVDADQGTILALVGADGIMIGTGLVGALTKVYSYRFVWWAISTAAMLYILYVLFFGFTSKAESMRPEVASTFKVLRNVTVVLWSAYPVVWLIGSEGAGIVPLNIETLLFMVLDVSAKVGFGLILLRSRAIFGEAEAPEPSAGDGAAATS
Description: We used BR solubilization from the PM to evaluate tripod detergents synthesized using the modular synthetic approach described above. The retinal chromophore of BR allowed us to quantify solubilized material by UV. Solubilized BR is defined as the intact protein left in the supernatant after a sample is centrifuged for 30 minutes at 300,000 g. The percent BR solubilized is determined by dividing the absorbance of the supernatant by the absorbance of the solution before centrifugation.
Solubilization experiments were conducted by making a series of solutions with constant concentration of PM and varying the concentration of detergent. […] The absorbance at the λmax (between 540 nm and 570 nm) was then measured, and immediately afterward the samples were centrifuged for 30 minutes at 300,000 g. The supernatant was carefully removed so as not to disturb pelleted material. Absorbance measurements were made again, and the ratio of the supernatant absorbance to the absorbance before centrifugation provided the percent solubilization.

[4] = system: BR; assay: Loss of exciton coupling of BR by CD spectra (rate of solubilization); parameters: species or system Halobacterium; settings: room temperature
Description: Tripod detergents 4.65 and 4.66 were tested in this fashion and shown to solubilize BR from the PM quite rapidly. To measure whether the solublized BR was present in a monomeric state, CD spectra of the supernatants were taken. When suspended within the native PM, BR yields a distinct sigmoidal CD spectrum due to exciton coupling between adjacent retinal chromophores. It has been shown that the strength of the exciton coupling is directly proportional to the concentration of retinal chromophore in the PM. Because the exciton coupling requires retinals to be held in a fixed geometry (as when suspended in the PM), the solubilization of BR can be measured in terms of the loss of exciton coupling. […] Exciton coupling was completely gone after less than 10 minutes for samples solubilized by 4.65 and 4.66, a time period which is faster than the time required to obtain a CD spectrum.

SMILES	CMC [1]	CMC (Critical Micelle Concentration) [1]	also measured
CN(C)CCCN(CCCN(C)C)C(=O)CC1(C2CCCCC2)CCCCCCC1 [Detergent 4.95]	24 mM	–	–
CCCCC(CCCC)(CC(=O)N(CC)CCN(C)C)c1ccccc1 [Detergent 4.78]	–	1.3 mM	–
CCCCC(CCCC)(CC(=O)NCC(C)(C)CN(C)C)c1ccccc1 [Detergent 4.83]	–	14.7 mM	–
CCCCC(CCCC)(CCOC1O[C@H](CO)[C@@H](O[C@H]2O[C@H](CO)[C@@H](O)[C@H](O)[C@H]2O)[C@H](O)[C@H]1O)c1ccccc1 (stereo partly shown) [A.2.5]	–	–	solubility in water (in words) ([2]; water): sparingly soluble in water; BR solubilized from the purple membrane [3]: approximately 50%
CCCCC(CCCC)(CC(=O)NC(C)(C)CN(C)C)c1ccccc1 [Detergent 4.81]	–	Does not take up dye up to solubility limit	solubility ([2]; water, Table 1, no dye uptake up to this limit, read-out: solubility limit): ~12.5 mM (≈ 4510 µg/mL)
CCCCCCC(CC(=O)N(CC[N+](C)(C)[O-])CC[N+](C)(C)[O-])(c1ccccc1)c1ccccc1 [Detergent 4.55]	–	–	BR solubilization (in words) [3]: readily solubilize BR
CCCCCCC(CCCC)(CCCC)CC(=O)N(CC[N+](C)(C)[O-])CC[N+](C)(C)[O-] [Detergent 4.39]	–	–	BR solubilization ([3]; after 11 days): approximately 30%
CCCCC(CCCC)(CC(=O)NC(C)(C)C[N+](C)(C)[O-])c1ccccc1 [Detergent 4.68]	–	1.2 mM	–
CCCCC(CCCC)(CC(=O)NCCCN(C)C)c1ccccc1 [Detergent 4.79]	–	2.8 mM	–
CN(C)CCCN(CCCN(C)C)C(=O)CC(c1ccc(-c2ccccc2)cc1)(c1ccc(-c2ccccc2)cc1)c1ccc(-c2ccccc2)cc1 [Detergent 4.90]	insol.	–	–
CCCCCCC(CC(=O)N(CCCN(C)C)CCCN(C)C)(c1ccccc1)c1ccccc1 [Detergent 4.87]	4 mM	–	–
CCCCC(CCCC)(CC(=O)N(CCCN(C)C)CCCN(C)C)C1CCCCC1 [Detergent 4.96]	4.6 mM	–	–
CCCCC(CCCC)(CC(=O)N(CCC[N+](C)(C)[O-])CCC[N+](C)(C)[O-])c1ccccc1 [Detergent 4.71]	–	10 mM	–
CC(C)(C)c1ccc(C(CC(=O)N(CC[N+](C)(C)[O-])CC[N+](C)(C)[O-])(c2ccc(C(C)(C)C)cc2)c2ccc(C(C)(C)C)cc2)cc1 [Detergent 4.59]	–	–	solubility on adding small amounts of ethanol or ethyl acetate [2]: greatly increased; solubility in water (in words) ([2]; water): insoluble in water
CCCCC(CCCC)(CCCC)CC(=O)N(CCCN(C)C)CCCN(C)C [Detergent 4.93]	6 mM	–	–
CCCCC(CCCC)(CC[N+](C)(C)[O-])c1ccccc1 [Detergent 4.69]	–	2.5 mM	–
CCCCC(CCCC)(CC(=O)N(CC)CC[N+](C)(C)[O-])c1ccccc1 [Detergent 4.65]	–	3 mM	CMC of N-oxide relative to corresponding hydrochloride salt [1]: twice; BR solubilization (in words) [3]: can solubilize BR; BR solubilization ([3]; >99% pure by HPLC): greater than 90%; rate of BR solubilization (in words) [4]: quite rapidly; also recorded: too rapid to monitor the loss of exciton coupling; time to complete loss of exciton coupling [4]: less than 10 minutes
CCCCC(CCCC)(CC(=O)NCC(C)(C)C[N+](C)(C)[O-])c1ccccc1 [Detergent 4.70]	–	7.5 mM	CMC of 4.70 relative to that of 4.68 [1]: six times larger

SMILES	CMC [1]	CMC (Critical Micelle Concentration) [1]	also measured
CCCCC(CCCC)(CC(=O)N(C)CCC[N+](C)(C)[O-])c1ccccc1 [Detergent 4.67]	–	3 mM	–
CCCCC(CC(=O)N(CC[N+](C)(C)[O-])CC[N+](C)(C)[O-])(C1CCCCC1)C1CCCCC1 [Detergent 4.56]	–	–	BR solubilization (in words) [3]: readily solubilize BR
CCCCC(CCCC)(CC(=O)NCCC[N+](C)(C)[O-])c1ccccc1 [Detergent 4.66]	–	4.5 mM	CMC of N-oxide relative to corresponding hydrochloride salt [1]: twice; BR solubilization (in words) [3]: readily solubilize BR; also recorded: can solubilize BR; rate of BR solubilization (in words) [4]: quite rapidly; also recorded: too rapid to monitor the loss of exciton coupling; time to complete loss of exciton coupling [4]: less than 10 minutes
CCCCCCCCCCc1ccc(C(=O)N(CC)CC[N+](C)(C)[O-])cc1 [Detergent 4.100]	–	0.125 mM	–
CCCCC(CCCC)(CCN(C)C)c1ccccc1 [Detergent 4.82]	–	5 mM	–
CCCCC(CCCC)(CC(=O)N(CCCN(C)C)CCCN(C)C)c1ccccc1 [Detergent 4.84]	24 mM	24 mM	–
C[N+](C)([O-])CCN(CC[N+](C)(C)[O-])C(=O)CC(c1ccc(-c2ccccc2)cc1)(c1ccc(-c2ccccc2)cc1)c1ccc(-c2ccccc2)cc1 [Detergent 4.62]	–	–	solubility on adding small amounts of ethanol or ethyl acetate [2]: greatly increased; solubility in water (in words) ([2]; water): insoluble in water
CN(C)CCCN(CCCN(C)C)C(=O)CC(c1ccccc1)(c1ccccc1)c1ccc(C(C)(C)C)cc1 [Detergent 4.89]	3 mM	–	–
CN(C)CCCN(CCCN(C)C)C(=O)CC(c1ccc(C(C)(C)C)cc1)(c1ccc(C(C)(C)C)cc1)c1ccc(C(C)(C)C)cc1 [Detergent 4.91]	insol.	–	–
CCCCCCC(CCCC)(CCCC)CC(=O)N(CCCN(C)C)CCCN(C)C [Detergent 4.92]	1 mM	–	–
CN(C)CCCN(CCCN(C)C)C(=O)CC1(c2ccccc2)CCCCCCC1 [Detergent 4.85]	80 mM	–	–
CN(C)CCCN(CCCN(C)C)C(=O)CC(c1ccccc1)(c1ccccc1)c1ccccc1 [Detergent 4.88]	30 mM	–	–
CCCCC(CC(=O)N(CCCN(C)C)CCCN(C)C)(c1ccccc1)c1ccccc1 [Detergent 4.86]	21 mM	–	–
CCCCC(CCCC)(CC(=O)N(C)CCCN(C)C)c1ccccc1 [Detergent 4.80]	–	5 mM	–
CCCCC(C)(CCCC)c1ccc(C(=O)N(CC)CC[N+](C)(C)[O-])cc1 [Detergent 4.104]	–	0.700 mM	–
CCCCC(CC(=O)N(CCCN(C)C)CCCN(C)C)(C1CCCCC1)C1CCCCC1 [Detergent 4.94]	3 mM	–	–
CCCCC(CCCC)(CC(=O)N(CC[N+](C)(C)[O-])CC[N+](C)(C)[O-])c1ccccc1 [Detergent 4.37]	–	–	BR solubilization ([3]; after mixing for approximately 20 hrs): greater than 90%; BR solubilization ([3]; first batch (about twice as much impurity 4.63)): > 90%; BR solubilization ([3]; second batch): < 50% and 50%
